Experimental data from patent US20260137819A1 (Radionetics Oncology, Inc., priority 2022, published 2026).

target: T1, human follicle-stimulating hormone receptor (FSHR) (Homo sapiens, UniProt P23945); experiment: Measurement of agonist cAMP production by activation of human FSHR; type: cell-based; conditions: CHO-K1 human FSHR cells, 30 minutes at 37° C., HTRF cAMP kit; read-out: hFSHR Agonist cAMP EC50
T1 construct: host or cells: CHO-K1
T1 sequence (P23945 18-695): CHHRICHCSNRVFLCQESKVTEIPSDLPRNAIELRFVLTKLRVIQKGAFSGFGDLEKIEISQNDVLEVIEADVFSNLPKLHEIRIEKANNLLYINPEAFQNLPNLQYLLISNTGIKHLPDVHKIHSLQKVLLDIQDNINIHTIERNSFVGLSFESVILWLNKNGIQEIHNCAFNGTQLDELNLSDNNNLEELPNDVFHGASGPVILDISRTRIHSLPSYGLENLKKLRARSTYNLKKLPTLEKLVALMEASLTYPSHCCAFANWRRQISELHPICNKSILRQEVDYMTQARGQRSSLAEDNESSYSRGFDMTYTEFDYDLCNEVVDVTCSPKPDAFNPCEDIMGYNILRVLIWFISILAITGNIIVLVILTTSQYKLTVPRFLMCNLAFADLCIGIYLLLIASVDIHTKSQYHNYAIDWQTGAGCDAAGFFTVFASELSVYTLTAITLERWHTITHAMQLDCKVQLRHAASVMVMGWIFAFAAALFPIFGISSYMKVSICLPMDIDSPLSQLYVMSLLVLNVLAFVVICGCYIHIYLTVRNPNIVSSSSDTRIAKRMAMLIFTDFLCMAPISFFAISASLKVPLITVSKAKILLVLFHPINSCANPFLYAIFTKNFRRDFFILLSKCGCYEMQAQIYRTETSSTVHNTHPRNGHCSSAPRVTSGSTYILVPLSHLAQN
Description: Measurement of agonist cAMP production by activation of human FSHR
Two days prior to the assay, 5,000 CHO—K1 human FSHR cells (Eurofins #95-0119C2) stably expressing the functional human follicle-stimulating hormone receptor were plated in a 96-well tissue culture-treated plate in growth media supplemented with the appropriate selection agent. […] The cells were incubated for 30 minutes at 37° C. (the final concentrations of the compound ranged from 0-10,000 nM). After the 30-minute incubation at 37° C., lysis buffer (HRTF CAMP kit, Cisbio #62AM5PEB)w as added directly to the cells and incubated for 30-minutes at room temperature. The diluted lysate was transferred and CAMP detection and visualization antibodies (HRTF CAMP kit, Cisbio #62AM5PEB) were added and incubated for 1-24 hours at room temperature. The time-resolved fluorescent signal was read with a Tecan M1000Pro (Tecan) multiplate reader. The intracellular cAMP concentrations were calculated by regression to a standard curve and were plotted vs. the concentration of the agonists. The concentration of test compound or FSH required to generate a half maximal response EC50 were calculated using standard curve-fitting methods. All data manipulations were performed using GraphPad Prism v9.3.1 (GraphPad, San Diego, CA).

EC50 [nM]	SMILES
10 to 100	COc1cc2c(cc1-c1cccc(NC(=O)C[C@@H](N)C(=O)NC3CCN(C(=O)CN4CCN(CC(=O)O)CCN(CC(=O)O)CCN(CC(=O)O)CC4)CC3)c1)-c1c(c(C(=O)N3CCOCC3(C)C)nn1-c1cc(Cl)cc(Cl)c1)CO2 [Compound 12, (R)-2,2′,2″-(10-(2-(4-(2-amino-4-((3-(1-(3,5-dichlorophenyl)-3-(3,3-dimethylmorpholine-4-carbonyl)-7-methoxy-1,4-dihydrochromeno|4,3-clpyrazol-8-yl)phenyl)amino)-4-oxobutanamido)piperidin-1-yl)-2-oxoethyl)-1,4,7,10-tetraazacyclododecane-1,4,7-triyl)triacetic acid]
10 to 100	COc1cc2c(cc1-c1cccc(NC(=O)CCOCCOCCOCCN(CCOCCOCCOCCNC(=O)CN3CCN(CC(=O)O)CCN(CC(=O)O)CCN(CC(=O)O)CC3)CCOCCOCCOCCNC(=O)CN3CCN(CC(=O)O)CCN(CC(=O)O)CCN(CC(=O)O)CC3)c1)-c1c(c(C(=O)N3CCOCC3(C)C)nn1-c1cc(Cl)cc(Cl)c1)CO2 [Compound 13]
< 10	COc1cc2c(cc1-c1cccc(NC(=O)NCCNC(=O)C[C@H](O)C[C@H](O)CCNC(=O)CN3CCN(CC(=O)O)CCN(CC(=O)O)CCN(CC(=O)O)CC3)c1)-c1c(c(C(=O)N3CCOCC3(C)C)nn1-c1cc(Cl)cc(Cl)c1)CO2 [Compound 14, 2,2′,2″-(10-(2-(((3R,5R)-7-((2-(3-(3-(1-(3,5-dichlorophenyl)-3-(3,3-dimethylmorpholine-4-carbonyl)-7-methoxy-1,4-dihydrochromeno[4,3-c]pyrazol-8-yl)phenyl)ureido)ethyl)amino)-3,5-dihydroxy-7-oxoheptyl)amino)-2-oxoethyl)-1,4,7,10-tetraazacyclododecane-1,4,7-triyl)triacetic acid]
< 10	COc1cc2c(cc1-c1cccc(NC(=O)CCC(=O)N(CCOCCOCCC(=O)O)C3CCN(C(=O)CN4CCN(CC(=O)O)CCN(CC(=O)O)CCN(CC(=O)O)CC4)CC3)c1)-c1c(c(C(=O)N3CCOCC3(C)C)nn1-c1cc(Cl)cc(Cl)c1)CO2 [Compound 15, 2,2′,2″-(10-(2-(4-(N-(2-(2-(2-carboxyethoxy)ethoxy)ethyl)-4-((3-(1-(3,5-dichlorophenyl)-3-(3,3-dimethylmorpholine-4-carbonyl)-7-methoxy-1,4-dihydrochromeno[4,3-c]pyrazol-8-yl)phenyl)amino)-4-oxobutanamido)piperidin-1-yl)-2-oxoethyl)-1,4,7,10-tetraazacyclododecane-1,4,7-triyl)triacetic acid]
10 to 100	COc1cc2c(cc1-c1cccc(NC(=O)CCOCCOCCOCCOCCOCCOCCNC(=O)CN3CCN(CC(=O)O)CCN(CC(=O)O)CCN(CC(=O)O)CC3)c1)-c1c(c(C(=O)N3CCOCC3(C)C)nn1-c1cc(Cl)cc(Cl)c1)CO2 [Compound 16, 2,2′,2″-(10-(24-((3-(1-(3,5-dichlorophenyl)-3-(3,3-dimethylmorpholine-4-carbonyl)-7-methoxy-1,4-dihydrochromeno[4,3-c]pyrazol-8-yl)phenyl)amino)-2,24-dioxo-6,9,12,15,18,21-hexaoxa-3-azatetracosyl)-1,4,7,10-tetraazacyclododecane-1,4,7-triyl)triacetic acid]
< 10	COc1cc2c(cc1-c1cccc(NC(=O)CCOCCOCCOCCOCCOCCOCCNC(=O)CN3CCN(CC(=O)O)CCN(CC(=O)O)CCN(CC(=O)O)CC3)c1)-c1c(c(C(=O)N3CCOCC3(C)C)nn1-c1cc(Cl)cc(Cl)c1)CO2 [Compound 16A]

SMILES	EC50 [nM]
COc1cc2c(cc1-c1cccc(NC(=O)CCOCCOCCOCCOCCNC(=O)CN3CCN(CC(=O)O)CCN(CC(=O)O)CCN(CC(=O)O)CC3)c1)-c1c(c(C(=O)N3CCOCC3(C)C)nn1-c1cc(Cl)cc(Cl)c1)CO2 [Compound 17, 2,2′,2″-(10-(18-((3-(1-(3,5-dichlorophenyl)-3-(3,3-dimethylmorpholine-4-carbonyl)-7-methoxy-1,4-dihydrochromeno|4,3-c|pyrazol-8-yl)phenyl)amino)-2,18-dioxo-6,9,12,15-tetraoxa-3-azaoctadecyl)-1,4,7,10-tetraazacyclododecane-1,4,7-triyl)triacetic acid]	< 10
